In US20050203013A1, “Methods for inhibiting vascular permeability” (priority 2002, published 2005):

Columns and labels:
[1] = system: Bovine adrenal capillary endothelial cells; assay: BCE proliferation assay; format: cell-based; conditions: challenged with bFGF, 72 h
Experimental: Bovine adrenal capillary endothelial cells were seeded on gelatinized plates (15,000/well). Following 24 h incubation, cells were challenged with free and conjugated TNP-470, and bFGF (1 ng/ml) was added to the medium. Cells were counted after 72 h.

chick aortic rings = assay: Chick aortic ring assay; format: cell-based
Experimental: Aortic arches were dissected from day-14 chick embryos and cut into cross-sectional fragments, everted to expose the endothelium, and explanted in Matrigel. When cultured in serum-free MCDB-131 medium, endothelial cells outgrow and three-dimensional vascular channel formation occurred within […]. Free and conjugated TNP-470 were added to the culture.

skin vessel permeability = assay: Miles vascular permeability assay (Example 3); format: in vivo, SCID mice
Experimental: SCID mice were injected subcutaneously (s.c.) with TNP-470 or HPMA copolymer-TNP-470 (30 mg/Kg TNP-equiv.) for three days, with Y27632 (50 nM s.c.) for 11 days, with angiostatin (200 mg/kg/day s.c.) for five days, or with saline (250 μl s.c.) for 5 days (n=12) prior to performing the Miles assay ([…] et al., 1996; Miles and Miles, 1952; Streit et al., 2000). Briefly, Evan's blue dye (100 μl of a 1% solution in 0.9% NaCl) was injected intravenously (i.v.) into mice. After 10 minutes, 50 μl of human VEGF165 (1 ng/μl), PAF (100 μM), CNF-1 (100 ng), histamine (1.2 μg/ml) or PBS (50 ul) were injected intradermally into the pre-shaved back skin. After 20 minutes, the animals were euthanized and an area of skin that included the blue spot resulting from leakage of the dye was removed. Evan's blue dye was extracted from the skin by incubation with formamide for 5 days at room temperature, and the absorbance of extracted dye was measured at 620 nm using a spectrophotometer. The unpaired Student t test was used for statistical analysis.

BCE cells = assay: Junction protein staining of BCE cells treated with TNP-470; format: cell-based, Bovine; conditions: 3 days in culture, stimulated by VEGF or PAF
Experimental: BCE cells were grown on a coverslip glass in a 24-well plate (200,000 cells/well) in DMEM+10% BCS+3 ng/ml bFGF. Cells were treated with TNP-470 for 3 days in culture. Cells were stimulated with VEGF (5 ng/ml) or PAF (100 nM) for 20 min. Cells were stained for occludin, claudin, ZO-1, beta-catenin and VE-cadherin with fluorescent antibodies.

HMVEC-d cells = assay: Cell proliferation assay, HMVEC-d; format: cell-based, Human
Experimental: HMVEC-d cells were trypsinized (0.05% trypsin) and resuspended (15,000 cells/ml) in EBM-2 supplemented with 5% fetal bovine serum (FBS), plated onto gelatinized 24-well culture plates (0.5 ml/well), and incubated for 24 hours (37° C., 5% CO2). The media was replaced with 0.5 ml of complete media (serum and growth factors; EGM-2 MV), and test substances were applied. Cells were challenged with free or conjugated TNP-470 (0.01 pg/ml to 1 mg/ml TNP-470-equivalent concentration). Control cells were grown with or without growth factors. U87 glioblastoma cells were washed with PBS, trypsinized and resuspended (5,000 cells/ml) in DMEM supplemented with 10% FBS, plated onto 24-well culture plates (0.5 ml/well), and incubated for 24 hours (37° C., 5% CO2). The media was replaced with 0.5 ml of DMEM and 10% FBS, and the test sample applied. Cells were challenged with free or conjugated TNP-470 (0.01 pg/ml to 1 mg/ml TNP-470-equivalent concentration). Control cells were grown with or without 10% FBS. Both cell types were incubated for 72 hours, followed by trypsinization, resuspension in Hematall (Fisher Scientific, Pittsburgh, Pa.), and counted in a Coulter counter.

Ca2+ influx in HMVEC-d = assay: Intracellular Ca2+ release; format: cell-based, Human
Experimental: For detaching cells, serum-starved HMVEC-d were incubated with 4 ml of collagenase solution (0.2 mg/ml collagenase, 0.2 mg/ml soybean trypsin inhibitor, 1 mg/ml BSA, and 2 mM EDTA in PBS) at 37° C. for 30 minutes. Cell pellets were washed with 2 ml of Ca^2+ buffer (5 mM KCl, 140 mM NaCl, 1 mM CaCl2, 1 mM MgCl2, 5.6 mM glucose, 0.1% BSA, 0.25 mM sulfinpyrazone, and 10 mM HEPEs, pH 7.5) and then resuspended in 2 ml of the same buffer containing 5 ng/ml TNP-470. The cells were incubated at 37° C. for 2 hours in suspension. During the last 30 minutes of incubation, 1 μg/ml Fura-2-AM Fura 2-AM (acetoxymethyl ester derivative of Fura 2) and 0.02% pluronic F-127 were added to the suspension. Cells (106) were collected and resuspended in 2 ml Ca^2+ buffer for VPF/VEGF (10 ng/ml), PAF (20 nM), or histamine ([…]) stimulation. Intracellular Ca^2+ concentrations were measured with the DeltaScan Illumination System (Photon Technology International Inc.) using Felix software, while rocking the tubes.

CO[C@@H]1[C@H](OC(=O)NC(=O)CCl)CC[C@]2(CO2)[C@H]1[C@@]1(C)O[C@@H]1CC=C(C)C [TNP-470]
BCE cell growth [1]: inhibited
concentration showing efficacy (reduced number and length of vascular sprouts) (chick aortic rings): 50 pg/mL
concentration that completely prevented outgrowth (chick aortic rings): 100 pg/mL
CNF-1-induced Evan's blue-albumin extravasation (skin vessel permeability; CNF-1 intradermal): inhibited
decrease of PAF-induced permeability (skin vessel permeability; PAF intradermal): 75%
low-level permeability induced by intradermal injections of PBS (skin vessel permeability; PBS intradermal): blocked
inhibition of Evan's blue dye extravasation from VPF/VEGF injection sites (skin vessel permeability; VPF/VEGF intradermal): ~70%
decrease of histamine-induced permeability (skin vessel permeability; histamine intradermal): 80%
effect on occludin, claudin, ZO-1, beta-catenin or VE-cadherin (BCE cells): did not see any significant and reproducible effect
endothelial cell vs tumor cell inhibitory concentration difference (HMVEC-d cells; HMVEC-d vs U87): 4 orders of magnitude
concentration inhibiting growth factor-induced proliferation without cytotoxicity (HMVEC-d cells; HMVEC-d, 72 hours): ≥ 1 pg/mL
cytotoxic concentration (HMVEC-d cells; HMVEC-d, 72 hours): higher than 1 μg/ml
Ca2+ influx induced by PAF (Ca2+ influx in HMVEC-d): decreased
Ca2+ influx induced by VPF/VEGF (Ca2+ influx in HMVEC-d): decreased
Ca2+ influx induced by histamine (Ca2+ influx in HMVEC-d): decreased
